Consider twelve molecules from patent publication US9551021B2, “Methods and compositions for detecting pathogenic bacteria” (Washington University, priority 2012, dated 2017).

The nature of series [1]: Superoxide dismutase (SOD) activity, xanthine/xanthine oxidase WST-1 formazan assay. It is filed as biochemical. The settings on record: for superoxide dismutase activity (in words) / SOD activity, percentage inhibition rate: WST-formazan assay, no added protein; for superoxide dismutase activity in the presence of protein: 1.0 mg/mL bovine serum albumin. The procedure: Reduction of WST-1 was monitored at 440 nm in a final volume of 100 μL. One unit of activity was defined as the amount of compound which blocked 50% WST-1 reduction under these conditions. […] To determine whether SOD activity is retained in the presence of protein, these experiments were repeated in the presence of 1.0 mg/mL bovine serum albumin (Sigma).
For orientation: Formazan colour is commonly taken as a measure of viable cells.

Series [2] in a line: UV-Vis spectroscopy of metal interaction. It is filed as physicochemical. The settings on record: purified HPTT with Fe (III) and Cu (II). From the text:
At this point, it had been confirmed that HPTT is detectable in vivo in a model UPEC strain that makes yersiniabactin. FIG. 24 confirms that HPTT is detected in wildtype UT189 but not UT189 strains comprising deletions in the yersiniabactin synthesis pathway (ybtS and ybtE). Given that HPTT is being secreted outside the cell and that it is made in relatively high abundance, we wanted to see if HPTT could be performing a specific function for the bacteria, and not simply a transient intermediate along the way to Ybt (FIG. 24). Given that its structure is similar to yersiniabactin, a siderophore, we hypothesized that it could interact with metals. Using solid phase extraction and HPLC, HPTT was purified to homogeneity with no contaminants, as detectable by HPLC. The purified compound was used to look for interactions with iron and copper by UV-Vis spectroscopy.

Series [3] in a line: Free copper (I) determination with bathocuproine. The settings on record: for reduction of copper (II) to copper (I): 20 μM reductant, 17.5 μM copper (II) sulfate. On the procedure:
Free copper (I) was determined spectrophotometrically using the copper (I) indicator bathocuproine. Briefly, 25 μM bathocuproine, 25 μM apo-yersiniabactin, and 17.5 μM copper (II) sulfate, were used in combination in order-of-addition experiments, as well as alone as controls in PBS. Either 20 μM enterobactin (Sigma) or its catecholate moiety, 2,3-dihydroxybenzoic acid (DHB) were added as bioreductants. Following a 30 minute room temperature incubation, 25 μM bathocuproine was added and copper (I) levels were determined by measuring the visible absorbance at 480 nm of the cuprous-bathocuproine complex. Final concentrations of copper (I) were determined by comparison to a standard curve.

In another series the test system is UTI89ΔybtS. The series can be described thus: Copper mediated cytotoxicity assay, yersiniabactin-deficient strain. Type of series: cell-based, E. coli. The procedure: (§1) Following overnight growth in 50 mL M63 minimal media, bacterial cultures were washed twice in phosphate buffered saline (PBS, Sigma) and centrifuged at 6,500 rpm. Washed cultures were resuspended in fresh M63 minimal media, and normalized to 10^8 CFU/mL for subsequent treatment. Normalized cultures were treated with varying concentrations of copper (II) sulfate and test agent in 2 mL reaction volumes in 6-well tissue culture plates. Samples were incubated for 20 hours at 37° C. with shaking. Bacterial viability was reported as the number of colony forming units per milliliter of the reaction volume post-treatment (CFU/mL).

The next series concerns UT189. As to the kind of experiment: Copper mediated cytotoxicity assay, wild type strain. It is filed as cell-based, E. coli. Conditions: for effect on viability: 20 μM alone, no copper; for effect on copper (II) sulfate toxicity: exogenous addition of 20 μM. On the procedure: as §1
The next series relates to RAW264.7 macrophages. The settings on record: 25 mM DPI, data not shown.
Series [4] has as its system urinary pathogenic E. coli strain. As to the kind of experiment: In vitro growth of urinary pathogenic E. coli strain. Conditions: at levels that inhibit yersiniabactin biosynthesis. Type of series: cell-based. The text has this: (§2) The ability of PAS to inhibit yersiniabactin biosynthesis in a urinary pathogenic E. coli strain was examined.
Series [5] deals with yersiniabactin biosynthesis. The series can be described thus: Inhibition of yersiniabactin biosynthesis in a urinary pathogenic E. coli strain. Type of series: cell-based.
Source text: as §2

The test system of series [6] is E. coli clinical isolates. The series can be described thus: Antimicrobial susceptibility of clinical isolates by disk diffusion. It is filed as cell-based. Conditions: for resistant clinical isolates: 337 bacteriuric inpatient clinical isolates. From the text: The samples were collected as part of a Washington University Institutional Review Board-approved prospective study of patients with E. coli bacteriuria (>5×10^4 colony forming units per milliliter) described by Marschall et al.^11 Strains without associated blood culture data were not excluded from this study. Briefly, clinical isolates were collected from male and female patients with significant bacteriuria. Bacterial DNA was extracted using a QIAamp DNA mini kit (Qiagen, Valencia, Calif.). DNA probes for virulence genes were conducted as previously described^11, and the presence of these genes was determined by dot-blot hybridization using a microarray system as described elsewhere (Table 1). E. coli phylogenetic group was determined from hybridization results using the triple genotyping method of Clermont et al.^25 Antimicrobial susceptibility was determined using disk diffusion tests. Bacteriuria was defined as? 5×10^4 colony forming units (CFU)/mL in non-catheterized patients and ≧5×10^3 CFU/mL in catheterized patients, as well as by using the patients' documented urinary symptoms. Pyelonephritis was defined as the presence of flank pain and tenderness and/or fever; sepsis and sepsis-induced hypotension were defined using established clinical criteria. The Microbiology Laboratory at Barnes Jewish Hospital provided clinical antibiogram data.
A general note: Agar diffusion results depend on both activity and mobility in agar.

“Also recorded” adds a separate entry of the source.

Regarding “bovine Cu/Zn SOD: bovine Cu/Zn superoxide dismutase used as a standard (Sigma S-7571)”, the “superoxide dismutase activity (in words)” value in series [1] is listed as “completely inhibited superoxide anion formation”.
As to “hydroxphenyl-thiazolinyl-thaizolinyl [HPTT]”, the “UV-Vis spectra in the presence of metal” value in series [2] is recorded as “red-shifted”.
In the case of `CC(C)(C1=N[C@@](C)(C(=O)O)CS1)[C@H](O)[C@@H]1CSC([C@H]2CSC(c3ccccc3O)=N2)N1` (stereo partly drawn) [apo-yersiniabactin], the “copper (I) bathocuproine signal” value in series [3] (apo-Ybt added before enterobactin or DHB, listed as Apo-yersiniabactin) is given as “prevents catechol-dependent reduction”; in [3] (apo-Ybt added before enterobactin or DHB, listed as apo-Ybt), “almost completely blocked”; in series [3] (enterobactin or DHB added before apo-Ybt), “restored the copper (I) signal”. Further, the “superoxide dismutase activity (in words)” value in [1] is “did not demonstrate superoxide dismutase activity and not”. Moreover, the “cytoprotection from copper toxicity” value in the series on UTI89ΔybtS (added in 1.5-fold molar excess over copper (II) sulfate) is recorded as “restores growth to untreated wild type levels”. Also, the “effect on bacterial viability” value with UTI89ΔybtS (in the absence of copper) is given as “negligible effect”. The “decrease in viable cells compared to wild type” value in the series on UTI89ΔybtS (purified apo-Ybt added with 10 μM copper sulfate) was 0.024 log.
On to `O=S(=O)([O-])[O-].[Cu+2]` [copper sulfate, copper (II) sulfate], for which, in [1], the “superoxide dismutase activity in the presence of protein” value is reported as “suppressed”; the “SOD activity, percentage inhibition rate” value is reported as 33.8%; the “superoxide dismutase activity (in words)” value is given as “did not demonstrate any superoxide dismutase like activity”. In addition, the “decrease in bacterial viability” value in the series with UTI89ΔybtS (10 μM copper sulfate alone) was over 3 log CFU/mL. Besides, the “reduction of viable colonies” value in the series on UT189 (10 μM copper (II) sulfate alone) was 2.5 log.
`c1ccc2c(c1)[I+]c1ccccc1-2` [DPI, Diphenyleneiodonium]: in the series with RAW264.7 macrophages, the oxidative-burst activity result was “decreased oxidative-burst activity to background levels” and the phagocytosis result is recorded as “without any gross defect in phagocytosis”.
With `Nc1ccc(C(=O)O)c(O)c1` [PAS, Para-aminosalicylic acid], the “inhibition of in vitro growth” value in series [4] is reported as “did not inhibit in vitro growth; also recorded: without inhibiting growth”. For the same molecule, the “inhibition of yersiniabactin biosynthesis” value in series [5] is reported as “selectively inhibits yersiniabactin biosynthesis”.
Consider `[Cl][Fe]([Cl])[Cl]` [ferric chloride], for which the “superoxide dismutase activity (in words)” value in series [1] is “did not demonstrate any superoxide dismutase like activity”.
As for `CC(C)(C1=N[C@@](C)(C(=O)O)CS1)[C@H](O)[C@@H]1CSC([C@H]2CSC(c3ccccc3O)=N2)[N-]1.[Fe]` (stereo partly drawn) [ferric complexes of yersiniabactin], in series [1], the “SOD activity, percentage inhibition rate” value turned out to be 41.4% and the “superoxide dismutase activity (in words)” value is recorded as “demonstrated SOD-like activity”.
Consider `O=C(N[C@H]1COC(=O)[C@@H](NC(=O)c2cccc(O)c2O)COC(=O)[C@@H](NC(=O)c2cccc(O)c2O)COC1=O)c1cccc(O)c1O` [enterobactin], for which, in series [3], the “reduction of copper (II) to copper (I)” value came to 84.7%. In addition, in the series on UT189, the effect on viability result is listed as “minimal effect” and the “effect on copper (II) sulfate toxicity” value is “enhances copper (II) sulfate toxicity”.
copper (II)-salicylate: in [1], the “superoxide dismutase activity in the presence of protein” value is “suppressed; also recorded: quenched” and the “SOD activity, percentage inhibition rate” value is listed as 61.6%.
Regarding trimethoprim-sulfamethoxazole [TMP/S], the resistant clinical isolates was 29% in [6] and 96 (29) total (%) in [6] (listed as trimethoprim/sulfamethoxazole (TMP/S)). Also, the susceptibility result in series [6] (fyuA+iroN siderophore genotype (CI community 3, BC 1+3)) was “highly susceptible”. Moreover, the “association with phenotypic resistance” value in series [6] (fyuA+iucD strategists (CI community 2, BC 1+2)) is recorded as “moderately with TMP/S resistance”.
For `O=C(O)c1cccc(O)c1O` [DHB, 2,3-dihydroxybenzoic acid], the “reduction of copper (II) to copper (I)” value in series [3] turned out to be 93.1%. Further, in the series with UT189, the effect on viability result was “minimal effect” and the “effect on copper (II) sulfate toxicity” value is “enhances copper (II) sulfate toxicity”.
